The target of the experiment is G-protein coupled estrogen receptor 1 (Homo sapiens) (UniProt Q99527). The experiment can be described thus: fluorescent ligand displacement from GPER – cell-based, dose response (AID 1224). To be noted: GPR30-expressing cells; for EC50: fluorescent ligand binding displacement.

What is called EC50 is the concentration at which the effect is half-maximal.

Calls of active or inactive are those of the source. The rule behind the calls is not given here. Where only a bound is given, the exact number is not on record here.

On to `O=C(O)c1ccc([N+](=O)[O-])c2c1NC(c1ccccc1)C1CC=CC21` (stereo not drawn), for which the EC50 is 62.3 nM.
On the same count and under the same terms, for `CC(=O)Oc1ccc(C2Nc3c(C(=O)O)ccc([N+](=O)[O-])c3C3C=CCC32)cc1` (stereo not drawn) the value was > 10000 nM (inactive).
In the case of `CC(=O)c1ccc2c(c1)C1C=CCC1C(c1cccc([N+](=O)[O-])c1)N2` (stereo not drawn), the “remaining binding, lower = displacement” value (at 100 µM (top of the series)) is “inactive”.

The record behind these values is PubChem BioAssay AID1224 (NMMLSC, 2008).
